Results from patent US9573899B2, “USP7 inhibitor compounds and methods of use” (Genentech, Inc., priority 2015, dated 2017).

Legend:
[1] = test system: p53 and p21 in p53 wild-type breast cancer and osteosarcoma cells; assay: Western blot of p53 and p21 in breast cancer, osteosarcoma and normal cells (FIG. 12A); assay type: cell-based; details: 15 μM, <24 h, low serum; p53 wild-type breast cancer and osteosarcoma cells but not normal cells
Experimental: (§1) In 24-well plates, 0.10-0.15×10^6 (adherent) or 0.5×10^6 (suspension) cells were treated with 15 μM or 2.5 μM compounds, respectively, for 24 h in low serum prior to lysis for Western Blot analysis.

USP7 = target: T1, USP7 (Homo sapiens, UniProt Q93009); assay: Ub-Rho110 DUB assay, Table 2, USP7; assay type: biochemical
T1 construct: USP7, full-length, native C-Terminus, 0.2 nM
T1 sequence (Q93009 whole entry): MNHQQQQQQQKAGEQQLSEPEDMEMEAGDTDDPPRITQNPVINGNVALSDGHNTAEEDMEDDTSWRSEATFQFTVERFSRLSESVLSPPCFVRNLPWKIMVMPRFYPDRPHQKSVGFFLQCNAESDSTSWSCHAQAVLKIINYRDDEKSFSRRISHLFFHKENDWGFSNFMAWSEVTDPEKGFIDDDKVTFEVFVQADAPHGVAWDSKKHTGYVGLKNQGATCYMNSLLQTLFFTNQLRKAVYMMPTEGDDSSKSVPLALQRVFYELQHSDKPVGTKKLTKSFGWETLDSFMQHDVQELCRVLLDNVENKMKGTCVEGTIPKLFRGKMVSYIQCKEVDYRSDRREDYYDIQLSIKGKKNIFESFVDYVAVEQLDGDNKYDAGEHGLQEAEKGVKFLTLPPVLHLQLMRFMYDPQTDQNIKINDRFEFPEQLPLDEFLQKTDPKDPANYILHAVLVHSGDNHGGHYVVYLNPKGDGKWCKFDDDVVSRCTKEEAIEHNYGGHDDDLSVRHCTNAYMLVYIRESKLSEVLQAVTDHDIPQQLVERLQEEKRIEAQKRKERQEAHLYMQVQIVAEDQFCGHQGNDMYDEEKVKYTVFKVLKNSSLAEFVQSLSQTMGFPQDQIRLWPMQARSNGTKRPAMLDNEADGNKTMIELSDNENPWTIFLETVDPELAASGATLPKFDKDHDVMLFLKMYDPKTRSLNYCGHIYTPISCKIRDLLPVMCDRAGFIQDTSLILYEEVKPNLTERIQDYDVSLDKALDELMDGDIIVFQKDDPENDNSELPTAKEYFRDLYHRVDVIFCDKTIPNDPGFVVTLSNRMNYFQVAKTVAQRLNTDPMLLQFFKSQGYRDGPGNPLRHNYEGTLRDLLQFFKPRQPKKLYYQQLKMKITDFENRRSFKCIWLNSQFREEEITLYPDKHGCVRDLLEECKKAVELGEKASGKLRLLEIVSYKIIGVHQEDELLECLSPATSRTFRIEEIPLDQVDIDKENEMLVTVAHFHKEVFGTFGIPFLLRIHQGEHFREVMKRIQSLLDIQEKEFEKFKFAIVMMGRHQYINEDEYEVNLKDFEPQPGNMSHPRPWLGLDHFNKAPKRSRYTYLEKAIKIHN
Experimental: Biochemical USP7 assays using Ubiquitin-Rho110 as a substrate: The final assay conditions were as follows: The Reaction Buffer consisted of: 50 mM Tris (pH 7.5), 0.01% (v/v) Triton X-100, 2.5 mM Dithiothreitol, 0.1% (w/v) bovine gamma globulin (Sigma cat #G5009-25G); USP7, full-length, native C-Terminus, 0.2 nM; the substrate, Ubiquitin-Rho110 (Boston Biochem cat #U-555), 1 uM. Reactions were carried out for 1 hour at room temperature, in black 20 μL volume polystyrene ProxiPlate 384 F Plus® (PerkinElmer cat #6008260).
Test compounds, including a control USP7 inhibitor (Ub-aldehyde, Boston Biochem cat #U-201) were serially diluted in DMSO, in 384 well clear V-bottom polypropylene plates (Greiner cat #781280). Compounds in DMSO were diluted 10-fold into Reaction Buffer, to achieve 3-fold the final desired concentration. The substrate, Ubiquitin-Rho110 (Boston Biochem cat #U-555), was prepared at 3 μM (3-fold the final concentration) and 5 ul was dispensed into the reaction plate. 5 ul of the compounds (diluted in Reaction Buffer at 3-fold the final concentration) were transferred to the reaction plate. 5 ul of 0.6 nM USP7 (diluted in Reaction Buffer at 3-fold the final concentration) was transferred to the reaction plate to initiate the reaction. After 1 hour incubation at room temperature the reaction was quenched by the addition of 5 ul of 400 mM acetic acid. The enzymatic product was measured by quantifying the fluorescence signal of cleaved Rhodamine-110 using excitation at 485 nm and emission at 535 nm. When pre-incubation of USP7 with compounds was required, the order of addition of reagents was modified to pre-mix the compounds with USP7 (with a 1 hour incubation period), prior to the addition of the substrate and the initiation of the reaction period. Percentage inhibition values were calculated relative to a no enzyme control and a uninhibited enzyme control. Curve fitting and IC50 calculations were carried out using Genedata Screener software.

[2] = test system: MCF-7 p53 WT breast cancer cells; assay: Incucyte cell proliferation and caspase activity, MCF-7 (FIG. 10, 17); assay type: cell-based; details: MCF-7 p53 WT compared to MDA-MB157 p53 null cells; compared to 89
Experimental: 2,500-5,000 cells were seeded in 1-well of a 96-well plate (Corning; 3904). The following day, the media was changed from normal (10%) to low serum (0.5%) containing vehicle (DMSO) or compounds. 16-24 h later FBS was added to each well to bring serum levels back to normal (10%). Cells were then allowed to grow for 2 days. All treatments were done in triplicate. The day after cells were seeded, the media was changed to low serum media containing 2 μM CellEvent Caspase 3/7 reagent (Life Technologies; C10423) and compounds. The plates were placed in an IncuCyte (Essen Bioscience, Inc.) live cell imager and scanning was started 15-20 mins after. IncuCyte™ ZOOM facilitates live-cell monitoring via customized imaging protocols. Images were taken every 2 h for at least 3 days, using a 10× objective. Phase contrast was used to measure cell confluency/density while green fluorescence was used to measure caspase activity. The images were analyzed using IncuCyte software (Basic Analysis parameters) and a ratio of caspase activity to cell density was determined.

[3] = test system: HCT116 cells (wild type and USP7 null); assay: CellTitre-Glo cell viability, HCT116 wild type and USP7 null (FIG. 4); assay type: cell-based, Human; details: HCT116 wild type versus USP7 null
Experimental: 2,500-5,000 cells were seeded in 1-well of a 96-well plate (Corning; 3904). The following day, the media was changed from normal (10%) to low serum (0.5%) containing vehicle (DMSO) or compounds. 16-24 h later FBS was added to each well to bring serum levels back to normal (10%). Cells were then allowed to grow for 2 days. All treatments were done in triplicate.
Seventy two hours after compounds were added, CellTitre Glo (CTG) reagent was added following the protocol provided by the manufacturer (Promega). In the experiment to test compound dependency on USP7, 3× more USP7 null cells were plated per well (7,500 vs. 2,500 for wild-type (WT) cells), given the slower proliferation of USP7 null cells. For the multiple myeloma experiment, cells seeded in low serum and treated with compounds immediately. Twenty four hours later, serum was added back to normal levels. CTG assay was done 24 h later i.e. 48 h after compounds were added instead of 72 hrs later for the adherent cells.

[4] = test system: p21 in KMS-21BM and KMS-28PE multiple myeloma cells; assay: Western blot in multiple myeloma cells (FIG. 13B); assay type: cell-based; details: compared to 89
Experimental: as §1

[5] = test system: p53 and p21 in HCT116 colon cancer cell lines; assay: Western blot of p53 and p21 in isogenic HCT116 cell lines (FIG. 2A); assay type: cell-based, Human; details: isogenic HCT116: wild-type, USP7 null
Experimental: as §1

USP5 = target: T2, USP5 (Homo sapiens, UniProt P45974); assay: Ub-Rho110 DUB assay, Table 2, USP5
T2 sequence (P45974 1-858): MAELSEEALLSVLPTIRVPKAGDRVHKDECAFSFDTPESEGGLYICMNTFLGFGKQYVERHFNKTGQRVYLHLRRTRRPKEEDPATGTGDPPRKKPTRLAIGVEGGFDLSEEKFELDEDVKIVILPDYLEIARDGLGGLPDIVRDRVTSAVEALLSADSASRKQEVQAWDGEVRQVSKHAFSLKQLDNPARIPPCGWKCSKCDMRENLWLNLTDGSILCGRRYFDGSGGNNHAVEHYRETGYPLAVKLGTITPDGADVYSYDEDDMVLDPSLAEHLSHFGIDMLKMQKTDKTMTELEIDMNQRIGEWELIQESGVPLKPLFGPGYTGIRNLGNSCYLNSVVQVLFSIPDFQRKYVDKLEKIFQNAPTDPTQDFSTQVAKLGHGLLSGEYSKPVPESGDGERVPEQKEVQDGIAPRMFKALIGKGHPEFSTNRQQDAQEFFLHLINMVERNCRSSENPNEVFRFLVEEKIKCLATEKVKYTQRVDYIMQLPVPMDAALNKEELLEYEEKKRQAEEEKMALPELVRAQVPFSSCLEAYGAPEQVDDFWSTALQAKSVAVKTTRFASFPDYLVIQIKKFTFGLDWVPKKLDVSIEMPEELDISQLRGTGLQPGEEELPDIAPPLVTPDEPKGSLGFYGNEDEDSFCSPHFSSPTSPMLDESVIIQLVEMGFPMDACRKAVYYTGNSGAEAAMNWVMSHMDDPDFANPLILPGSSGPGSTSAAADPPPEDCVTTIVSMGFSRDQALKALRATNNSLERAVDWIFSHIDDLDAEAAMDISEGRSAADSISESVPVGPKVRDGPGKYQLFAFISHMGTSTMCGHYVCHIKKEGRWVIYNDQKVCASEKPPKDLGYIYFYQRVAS

IC50 (USP7): 0.98 µM
IC50 (USP5): 18.6 µM
SMILES: CCc1c(-c2ccc3[nH]ncc3c2)cnc(N)c1-c1ccc(O)cc1 [Compound 88, 4-[2-amino-4-ethyl-5-(1H-indazol-5-yl)-3-pyridyl]phenol]
p53 and p21 levels (western blot) [1]: increases p53 and p21 levels
selectivity of antagonism of USP7 catalytic activity over the DUBs evaluated (USP7; conclusion from Table 2 (USP7, USP7 cat, USP47, USP5)): selective antagonists of USP7 catalytic activity
cell viability (Incucyte proliferation and caspase activity) [2]: decreases cell viability
cell viability [3]: USP7-dependent decrease in viability
p21 levels (western blot) [4]: increases p21 levels
stabilization of p53 and p21 (western blot) [5]: stabilize p53 and p21
